Reference: ChEMBL document CHEMBL1201862, “PubChem BioAssay data set” (2004)
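1) Cells in 96-well plates. 2) Compound, 48 h, 5 concentrations. 3) Linear interpolation between surrounding doses. 4) Unreached endpoint = highest concentration. At the GI50, growth is halved.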 Active and inactive are the calls of the source. No stated cut-off is given here; in the data, active = GI50 up to about 1.1 µM and inactive = higher.

Assays:
Test in all cases: NCI-60 cell line screen, 48 h
BT-549 = test system: BT-549
Malme-3M = test system: Malme-3M
KM12 = test system: KM12
PC-3 = test system: PC-3
Hs-578T = test system: Hs-578T
CAKI-1 = test system: CAKI-1
MDA-N = test system: MDA-N
NCI/ADR-RES = test system: NCI/ADR-RES
OVCAR-5 = test system: OVCAR-5
786-0 = test system: 786-0
NCI-H522 = test system: NCI-H522
CCRF-CEM = test system: CCRF-CEM
RPMI-8226 = test system: RPMI-8226
DU-145 = test system: DU-145
UACC-257 = test system: UACC-257
SK-MEL-2 = test system: SK-MEL-2
HCC 2998 = test system: HCC 2998
MDA-MB-231 = test system: MDA-MB-231
NCI-H226 = test system: NCI-H226
A498 = test system: A498

Row | SMILES | GI50 (BT-549) | GI50 (Malme-3M) | GI50 (KM12) | GI50 (PC-3) | GI50 (Hs-578T) | GI50 (CAKI-1) | GI50 (MDA-N) | GI50 (NCI/ADR-RES) | GI50 (OVCAR-5) | GI50 (786-0) | GI50 (NCI-H522) | GI50 (CCRF-CEM) | GI50 (RPMI-8226) | GI50 (DU-145) | GI50 (UACC-257) | GI50 (SK-MEL-2) | GI50 (HCC 2998) | GI50 (MDA-MB-231) | GI50 (NCI-H226) | GI50 (A498)
1 | COC1=CC(=O)C(C2CC(=O)c3c(O)cc(O)cc3O2)=CC1=O (stereo not given) | 19.8 µM (inactive) | 19.1 µM (inactive) | 17.3 µM (inactive) | 16.5 µM (inactive) | 33.5 µM (inactive) | 18 µM (inactive) | 15.6 µM (inactive) | 21.7 µM (inactive) | 19.6 µM (inactive) | 13.1 µM (inactive) | 15.4 µM (inactive) | 0.658 µM (active) | 10.9 µM (inactive) | 19 µM (inactive) | 18.5 µM (inactive) | 17.4 µM (inactive) | 16.8 µM (inactive) | 12.2 µM (inactive) | 19.4 µM (inactive) | 29.9 µM (inactive)
2 | Nc1ccc(Oc2ccc(C3(c4ccc(Oc5ccc(N)c(O)c5)cc4)C4CC5CC(C4)CC3C5)cc2)cc1O | 1.66 µM (inactive) | 2.3 µM (inactive) | 1.91 µM (inactive) | 1.68 µM (inactive) | 2.24 µM (inactive) | 2.47 µM (inactive) | 2.03 µM (inactive) | 2.35 µM (inactive) | 2.35 µM (inactive) | 1.82 µM (inactive) | 1.73 µM (inactive) | 2.82 µM (inactive) | 1.97 µM (inactive) | 1.82 µM (inactive) | 2.12 µM (inactive) | 1.86 µM (inactive) | 1.65 µM (inactive) | 1.82 µM (inactive) | 1.83 µM (inactive) | 5.74 µM (inactive)
3 | CC1CCC2(CC1)N=C1CCC(C)CC1C1(CCC(C)CC1)N2 (stereo not given) | > 100 µM (inactive) | > 100 µM (inactive) | > 100 µM (inactive) | 41.2 µM (inactive) | > 100 µM (inactive) | > 100 µM (inactive) | 73.8 µM (inactive) | > 100 µM (inactive) | > 100 µM (inactive) | > 100 µM (inactive) | 69.8 µM (inactive) | 24.3 µM (inactive) | 82 µM (inactive) | > 100 µM (inactive) | 83.6 µM (inactive) | > 100 µM (inactive) | 69 µM (inactive) | > 100 µM (inactive) | > 100 µM (inactive) | > 100 µM (inactive)
4 | CCOC(=O)c1cc(C2CCN(c3ccccc3)C2=O)c(C(=O)/C=C(/C)N)[nH]1 (stereo not given) | > 100 µM (inactive) | 17.6 µM (inactive) | > 100 µM (inactive) | 39.5 µM (inactive) | 14.9 µM (inactive) | 21.3 µM (inactive) | 71.4 µM (inactive) | 44 µM (inactive) | 46.3 µM (inactive) | 10.2 µM (inactive) | 18.5 µM (inactive) | > 100 µM (inactive) | > 100 µM (inactive) | 54.5 µM (inactive) | 94.8 µM (inactive) | > 100 µM (inactive) | > 100 µM (inactive) | 56.4 µM (inactive) | 20.5 µM (inactive) | 57 µM (inactive)
5 | O=CC1OC(=O)c2cc(O)c(O)c(O)c2-c2c(cc(O)c(O)c2O)C(=O)OC1C1OC(=O)c2cc(O)c(O)c(O)c2-c2c(O)c(O)c3oc(=O)c4c(c(O)c(O)c5oc(=O)c2c3c54)-c2c(cc(O)c(O)c2O)C(=O)OCC1O (stereo not given) | > 100 µM (inactive) | 94.4 µM (inactive) | 20.3 µM (inactive) | 38.2 µM (inactive) | 44.7 µM (inactive) | 12.1 µM (inactive) | 20.4 µM (inactive) | 36.8 µM (inactive) | 29.6 µM (inactive) | 18.7 µM (inactive) | 18.2 µM (inactive) | 24.3 µM (inactive) | 57.8 µM (inactive) | 50.6 µM (inactive) | 46.2 µM (inactive) | > 100 µM (inactive) | 33.4 µM (inactive) | 13.9 µM (inactive) | 32.4 µM (inactive) | 5.94 µM (inactive)
6 | COc1ccc(-c2c(-c3ccccc3)c(C)c3ccccn23)cc1 | > 100 µM (inactive) | 95.9 µM (inactive) | 26.3 µM (inactive) | 84.3 µM (inactive) | > 100 µM (inactive) | > 100 µM (inactive) | 70.1 µM (inactive) | > 100 µM (inactive) | > 100 µM (inactive) | > 100 µM (inactive) | 57.7 µM (inactive) | 28.2 µM (inactive) | 47.6 µM (inactive) | > 100 µM (inactive) | 49.9 µM (inactive) | 33 µM (inactive) | > 100 µM (inactive) | > 100 µM (inactive) | > 100 µM (inactive) | > 100 µM (inactive)
7 | Clc1cc(Cl)cc(/C=N/C23CC4CC(CC(C4)C2)C3)c1 | > 10 µM (inactive) | > 10 µM (inactive) | > 10 µM (inactive) | > 10 µM (inactive) | > 10 µM (inactive) | > 10 µM (inactive) | > 10 µM (inactive) | > 10 µM (inactive) | > 10 µM (inactive) | > 10 µM (inactive) | > 10 µM (inactive) | > 10 µM (inactive) | > 10 µM (inactive) | > 10 µM (inactive) | > 10 µM (inactive) | > 10 µM (inactive) | > 10 µM (inactive) | > 10 µM (inactive) | > 10 µM (inactive) | > 10 µM (inactive)
8 | Oc1cccc2c1[nH]c1c(C3=C[C@@]4(O)CC/C=C\CCCCN5CC[C@@H]3[C@]3(CC6/C=C\CCCCN6[C@H]34)C5)nccc12 (stereo not given in full) | 1.81 µM (inactive) | 1.6 µM (inactive) | 1.55 µM (inactive) | 0.738 µM (active) | 1.63 µM (inactive) | 1.67 µM (inactive) | 0.771 µM (active) | 2.17 µM (inactive) | 1.07 µM (active) | 0.659 µM (active) | 1.01 µM (active) | 0.973 µM (active) | 0.61 µM (active) | 1.15 µM (inactive) | 1.68 µM (inactive) | 1.47 µM (inactive) | 0.384 µM (active) | 1.19 µM (inactive) | 2.21 µM (inactive) | 2.24 µM (inactive)
9 | CC(NNC(=O)c1cc[n+]([BH2-]C#N)cc1)c1ccc(Cl)c(Cl)c1 (stereo not given) | 27.9 µM (inactive) | 30.9 µM (inactive) | 40.5 µM (inactive) | 22.9 µM (inactive) | 28.4 µM (inactive) | 18.1 µM (inactive) | 35.2 µM (inactive) | 30.5 µM (inactive) | 41.3 µM (inactive) | 47.5 µM (inactive) | 21.3 µM (inactive) | 37.1 µM (inactive) | 33.5 µM (inactive) | 37.8 µM (inactive) | 36.3 µM (inactive) | 32.2 µM (inactive) | 42.6 µM (inactive) | 24.8 µM (inactive) | 22.4 µM (inactive) | 33.7 µM (inactive)
